Measurements reported in BindingDB's records for doi:10.1016/S1074-5521(99)80048-9 (University of California Berkeley, 1999).

Target: Cyclin-dependent kinase 1 (Homo sapiens, UniProt P06493)
Assay: Inhibition Assay
Description: Inhibition assay using CDK1/cyclin B.

Chain of Cyclin-dependent kinase 1 (P06493 whole entry): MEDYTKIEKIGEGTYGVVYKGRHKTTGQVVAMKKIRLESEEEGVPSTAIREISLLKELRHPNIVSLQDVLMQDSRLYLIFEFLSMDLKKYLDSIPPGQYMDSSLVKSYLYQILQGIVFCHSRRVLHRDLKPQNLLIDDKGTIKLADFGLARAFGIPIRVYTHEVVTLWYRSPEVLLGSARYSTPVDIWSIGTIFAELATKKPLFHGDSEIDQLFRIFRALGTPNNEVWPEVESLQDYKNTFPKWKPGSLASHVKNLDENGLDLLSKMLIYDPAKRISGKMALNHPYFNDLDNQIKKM

| IC50 [nM] | SMILES |
| --- | --- |
| 9000 | CC(C)N1CNc2c(NCCC(c3ccccc3)c3ccccc3)nc(N3CCCCC3CCO)nc21 (configuration not stated) |
| 40 | CC(C)[C@H](CO)Nc1nc(Nc2ccc(Br)cc2)c2c(n1)N(C(C)C)CN2 [2-(1 R-isopropyl-2-hydroxyethylamino)-9-isopropylpurine core C6-substituent, 73] |
| 240 | CC(C)[C@H](CO)Nc1nc(Nc2ccccc2)c2c(n1)N(C(C)C)CN2 [2-(1 R-isopropyl-2-hydroxyethylamino)-9-isopropylpurine core C6-substituent, 78] |
| 100 | CC(C)[C@H](CO)Nc1nc(Nc2ccc(O)c(C(=O)O)c2)c2c(n1)N(C(C)C)CN2 [2-(1 R-isopropyl-2-hydroxyethylamino)-9-isopropylpurine core C6-substituent, 94] |
| 30 | CC(C)[C@H](CO)Nc1nc(Nc2ccc(Cl)c(C(=O)O)c2)c2c(n1)N(C(C)C)CN2 [2-(1 R-isopropyl-2-hydroxyethylamino)-9-isopropylpurine core C6-substituent, 96] |
| 170 | CC(C)[C@H](CO)Nc1nc(NCc2cccc(I)c2)c2c(n1)N(C(C)C)CN2 [2-(1 R-isopropyl-2-hydroxyethylamino)-9-isopropylpurine core C6-substituent, 112] |
| 80 | CC(C)[C@H](CO)Nc1nc(Nc2ccc(Cl)cc2)c2c(n1)N(C(C)C)CN2 [2-(1 R-isopropyl-2-hydroxyethylamino)-9-isopropylpurine core C6-substituent, 356] |
| 9000 | COc1ccccc1Nc1nc(NCCO)nc2c1NCN2C(C)C [2-(2-hydroxyethylamino)-9-isopropylpurine core C6-substituents, 46] |
| 430 | CC(C)N1CNc2c(Nc3ccc4ccccc4c3)nc(NCCO)nc21 [2-(2-hydroxyethylamino)-9-isopropylpurine core C6-substituents, 47] |
| 220 | CC(C)N1CNc2c(Nc3cccc(Cl)c3)nc(NCCO)nc21 [2-(2-hydroxyethylamino)-9-isopropylpurine core C6-substituents, 52] |
| 6000 | CC(C)N1CNc2c(NCc3cccc(I)c3)nc(N3CCCCC3CCO)nc21 (configuration not stated) [2-(2-hydroxyethylpiperidyl)-9-isopropylpurine core C6-substituent, 113] |
| 160 | CC(C)N1CNc2c(NCc3ccccc3)nc(N3CCCCC3CCO)nc21 (configuration not stated) [2-(2-hydroxyethylpiperidyl)-9-isopropylpurine core C6-substituent, 212] |
| 1300 | CCCCNc1nc(N2CCCCC2CCO)nc2c1NCN2C(C)C (configuration not stated) [2-(2-hydroxyethylpiperidyl)-9-isopropylpurine core C6-substituent, 219] |
| 130 | CC(C)N1CNc2c(Nc3ccccc3)nc(N3CCCCC3CCO)nc21 (configuration not stated) [2-(2-hydroxyethylpiperidyl)-9-isopropylpurine core C6-substituent, 220] |
| 3000 | CC(C)N1CNc2c(NCc3cccc(C(F)(F)F)c3)nc(N3CCCCC3CCO)nc21 (configuration not stated) [2-(2-hydroxyethylpiperidyl)-9-isopropylpurine core C6-substituent, 222] |
| 1500 | CC(C)N1CNc2c(NCCNc3ccccc3)nc(N3CCCCC3CCO)nc21 (configuration not stated) [2-(2-hydroxyethylpiperidyl)-9-isopropylpurine core C6-substituent, 224] |
| 1200 | CC(C)N1CNc2c(NCc3ccc4ccccc4c3)nc(N3CCCCC3CCO)nc21 (configuration not stated) [2-(2-hydroxyethylpiperidyl)-9-isopropylpurine core C6-substituent, 226] |
| > 10000 | CC(C)N1CNc2c(N(CCN(C)C)Cc3ccccc3)nc(N3CCCCC3CCO)nc21 (configuration not stated) [2-(2-hydroxyethylpiperidyl)-9-isopropylpurine core C6-substituent, 227] |
| 790 | CC(C)N1CNc2c(Nc3ccc(Cl)cc3)nc(N3CCCCC3CCO)nc21 (configuration not stated) [2-(2-hydroxyethylpiperidyl)-9-isopropylpurine core C6-substituent, 359] |
| > 10000 | Cc1ccc(CN(c2nc(Nc3cccc(Cl)c3)c3c(n2)N(C(C)C)CN3)[C@@H](O)C(C)C)cc1 [2-((1 R-isopropyl)-2-hydroxyethylamino)-6-(3-chloroanilino)-9-isopropylpurine core C2-substituent, 317] |
| 800 | CC(C)N1CNc2c(Nc3cccc(Cl)c3)nc(N[C@H](CO)c3ccccc3)nc21 [6-(3-chloroanilino)-9-isopropylpurine core C2-substituent, 59] |
| 2300 | CC(C)N1CNc2c(Nc3cccc(Cl)c3)nc(N[C@H](CO)C(C)(C)C)nc21 [6-(3-chloroanilino)-9-isopropylpurine core C2-substituent, 61] |
| 500 | CCC(C)[C@@H](CO)Nc1nc(Nc2cccc(Cl)c2)c2c(n1)N(C(C)C)CN2 (some centres not stated) [6-(3-chloroanilino)-9-isopropylpurine core C2-substituent, 62] |
| 5000 | CC(C)N1CNc2c(Nc3cccc(Cl)c3)nc(N[C@H]3Cc4ccccc4[C@H]3O)nc21 [6-(3-chloroanilino)-9-isopropylpurine core C2-substituent, 69] |

| IC50 [nM] | SMILES |
| --- | --- |
| 500 | CC(C)N1CNc2c(Nc3cccc(Cl)c3)nc(N[C@H](CO)Cc3ccccc3)nc21 [6-(3-chloroanilino)-9-isopropylpurine core C2-substituent, 70] |
| 5000 | CC(C)N1CNc2c(Nc3cccc(Cl)c3)nc(N(CCO)Cc3ccccc3)nc21 [6-(3-chloroanilino)-9-isopropylpurine core C2-substituent, 302] |
| 350 | CC(O)CN(CC(C)O)c1nc(Nc2cccc(Cl)c2)c2c(n1)N(C(C)C)CN2 (configuration not stated) [6-(3-chloroanilino)-9-isopropylpurine core C2-substituent, 305] |
| 300 | CC[C@H](CO)Nc1nc(Nc2cccc(Cl)c2)c2c(n1)N(C(C)C)CN2 [6-(3-chloroanilino)-9-isopropylpurine core C2-substituent, 307] |
| 530 | CC(C)C[C@H](CO)Nc1nc(Nc2cccc(Cl)c2)c2c(n1)N(C(C)C)CN2 [6-(3-chloroanilino)-9-isopropylpurine core C2-substituent, 308] |
| 210 | COc1ccc(CNc2nc(N3CCCCC3CCO)nc3c2NCN3C(C)C)cc1 (configuration not stated) [6-(4-methoxybenzylamino) core C2-substituent, 10] |
| 7000 | COc1ccc(CNc2nc(N3CCN(CCO)CC3)nc3c2NCN3C(C)C)cc1 [6-(4-methoxybenzylamino) core C2-substituent, 11] |
| 10800 | COc1ccc(CNc2nc(N3CCN(C)CC3)nc3c2NCN3C(C)C)cc1 [6-(4-methoxybenzylamino) core C2-substituent, 12] |
| 1200 | CCN(CCO)c1nc(NCc2ccc(OC)cc2)c2c(n1)N(C(C)C)CN2 [6-(4-methoxybenzylamino) core C2-substituent, 13] |
| 1300 | COc1ccc(CNc2nc(NCC(O)CO)nc3c2NCN3C(C)C)cc1 (configuration not stated) [6-(4-methoxybenzylamino) core C2-substituent, 15] |
| 240 | COc1ccc(CNc2nc(N(CC(C)O)CC(C)O)nc3c2NCN3C(C)C)cc1 (configuration not stated) [6-(4-methoxybenzylamino) core C2-substituent, 16] |
| 6500 | COc1ccc(CNc2nc(N3CCC(O)CC3)nc3c2NCN3C(C)C)cc1 [6-(4-methoxybenzylamino) core C2-substituent, 27] |
| 100 | COc1ccc(CNc2nc(N[C@@H](CO)CC(C)C)nc3c2NCN3C(C)C)cc1 [6-(4-methoxybenzylamino) core C2-substituent, 36] |
| 1000 | COc1ccc(CNc2nc(N(C)CC(O)c3ccccc3)nc3c2NCN3C(C)C)cc1 (configuration not stated) [6-(4-methoxybenzylamino) core C2-substituent, 37] |
| 4000 | COc1ccc(CNc2nc(N3CCCCCC3)nc3c2NCN3C(C)C)cc1 [6-(4-methoxybenzylamino) core C2-substituent, 38] |
| 5000 | COc1ccc(CNc2nc(N(CCN(C)C)Cc3ccccc3)nc3c2NCN3C(C)C)cc1 [6-(4-methoxybenzylamino) core C2-substituent, 40] |
| 1600 | COc1ccc(CNc2nc(NCC(O)CN)nc3c2NCN3C(C)C)cc1 (configuration not stated) [6-(4-methoxybenzylamino) core C2-substituent, 41] |
| 2800 | COc1ccc(CNc2nc(N(CCO)Cc3ccccc3)nc3c2NCN3C(C)C)cc1 [6-(4-methoxybenzylamino) core C2-substituent, 49] |
| 2800 | COc1ccc(CNc2nc(NCC(O)c3ccccc3)nc3c2NCN3C(C)C)cc1 (configuration not stated) [6-(4-methoxybenzylamino) core C2-substituent, 50] |
| 700 | COc1ccc(CNc2nc(NCCO)nc3c2NCN3C(C)C)cc1 [6-(4-methoxybenzylamino) core C2-substituent, 118] |
| 1200 | COc1ccc(CNc2nc(NCCCO)nc3c2NCN3C(C)C)cc1 [6-(4-methoxybenzylamino) core C2-substituent, 209] |
| 250 | COc1ccc(CNc2nc(N(CCO)CCCO)nc3c2NCN3C(C)C)cc1 [6-(4-methoxybenzylamino) core C2-substituent, 211] |
| 450 | COc1ccc(CNc2nc(NC3(CO)CCCC3)nc3c2NCN3C(C)C)cc1 [6-(4-methoxybenzylamino) core C2-substituent, 314] |
